Laboratory results as given in US20190177421A1, “CHIMERIC ANTIGEN RECEPTORS AND METHODS FOR USE” (Poseida Therapeutics, Inc., priority 2016, published 2019).
Read-outs that look alike come from different tables or passages of the source.

How the values were obtained:
cells [1] = test: Amount of AP1903 needed in vitro for effective signaling of cells; format: cell-based; details: calculated with 1600 Da MW
Procedure: The fixed dose of AP1903 for injection used, for example, may be 0.4 mg/kg intravenously infused over 2 hours. The amount of AP1903 needed in vitro for effective signaling of cells is 10-100 nM (1600 Da MW). This equates to 16-160 μg/L or 0.016-1.6 μg/kg (1.6-160 μg/kg). Doses up to 1 mg/kg were well-tolerated in the Phase I study of AP1903 described above. Therefore, 0.4 mg/kg may be a safe and effective dose of AP1903 for this Phase I study in combination with the therapeutic cells.

[2] = test system: human pan T-cells containing the iC9 construct; test: iC9 safety switch test: viability by flow cytometry using 7-AAD; format: cell-based; details: 24 hours incubation, 0-1000 nM tested, cells with iC9 safety switch
Text: Human pan T-cells were nucleofected using an Amaxa 4D nucleofector with one of four piggyBac transposons. Modified T cells receiving the “mock” condition were nucleofected with an empty piggyBac transposon. Modified T cells received either a piggyBac transposon containing a therapeutic agent alone (a sequence encoding a CARTyrin) or a piggyBac transposon containing an integrated iC9 sequence and a therapeutic agent (a sequence encoding a CARTyrin).
To test the iC9 safety switch, each of the four modified T cells were incubated for 24 hours with 0, 0.1 nM, 1 nM, 10 nM, 100 nM or 1000 nM AP1903 (an induction agent for […]). Viability was assessed by flow cytometry using 7-aminoactinomycin D (7-AAD), a fluorescent intercalator, as a marker for cells undergoing apoptosis.

cells [3] = details: cited from earlier work
[4] = cited from earlier work
human primary T cells = test: In vitro CARTyrin surface expression in T cells; format: cell-based; details: following lentiviral transduction of human primary T cells
Text: Characterization further assays correlations with functionality.

tumor = test: In vivo tumor challenge study in mice
Text: FIG. 6 is a schematic diagram depicting an in vivo tumor challenge study timeline using the A08 CARTyrin in mice.
FIG. 6 depicts the treatment schedule for an in vivo study in mice using the A08 CARTyrin. […] FIG. 8 provides a series of photographs further illustrating tumor burden in control animal as well as those treated with P-BCMA-101.

Procedure for BCMA+ tumor cells: Functionality of CARTyrin-expressing T cells was measured by degranulation against tumor lines.

Row | Compound | amount needed for effective signaling, equated to dose (cells [1]) | amount needed for effective signaling, equated to mass concentration (cells [1]) | concentration at which apoptosis is induced [2] | amount needed in vitro for effective signaling of cells (cells [3]) | plasma level as % of maximal concentration ([4]; 0.5 hours post-dose) | plasma level as % of maximal concentration ([4]; 2 hours post-dose) | plasma level as % of maximal concentration ([4]; 10 hours post-dose) | well-tolerated doses ([4]; Phase I study, IV) | mean Cmax ([4]; single doses infused IV over 2 hours, 0.01-1.0 mg/kg dose range, plasma) | surface expression (human primary T cells) | tumor burden assessed by M-protein abundance (tumor; day 21) | tumor burden assessed by M-protein abundance (tumor; day 21, listed as P-BCMA-101) | tumor burden compared to controls (tumor; photographs) | survival (tumor; to day 21) | cytotoxic function (e.g. proliferation) (BCMA+ tumor cells)
1 | CC[C@H](C(=O)N1CCCC[C@H]1C(=O)O[C@H](CCc1ccc(OC)c(OC)c1)c1cccc(OCC(=O)NCCNC(=O)COc2cccc([C@@H](CCc3ccc(OC)c(OC)c3)OC(=O)[C@@H]3CCCCN3C(=O)[C@@H](CC)c3cc(OC)c(OC)c(OC)c3)c2)c1)c1cc(OC)c(OC)c(OC)c1 (relative stereo) [AP1903, 2-Piperidinecarboxylic acid, 1-[(2S)-1-oxo-2-(3,4,5-trimethoxyphenyl)butyl]-, 1,2-ethanediylbis[imino(2-oxo-2,1-ethanediyl)oxy-3,1-phenylene[(1R)-3-(3,4-dimethoxyphenyl)propylidene]]ester, [2S-[1(R*),2R*[S*[S*[1(R*),2R*]]]]]-(9Cl)] | 0.016 to 1.6 µg/kg | 16 to 160 µg/L | ≤ 0.1 nM | 10 to 100 nM | approximately 18% | ~7% | ~1% | up to 1 mg/kg | 10 to 1275 ng/mL |  |  |  |  |  | 
2 | A08 CARTyrin: anti-BCMA CARTyrin (CAR comprising a Centyrin), SEQ ID NO: 21; P-BCMA-101 encodes the A08 anti-BCMA CARTyrin |  |  |  |  |  |  |  |  |  | high levels of surface expression | no detectable M-protein | not detectable | reduce tumor burden | 100% | strong cytotoxic function
